Experimental data published in paper PMC8954350, “Non-Canonical Cannabinoid Receptors with Distinct Binding and Signaling Properties in Prostate and Other Cancer Cell Types Mediate Cell Death” (International Journal of Molecular Sciences, 2022).
Several values for one entry are separate records, joined by “and”; a condition that tells them apart may be missing. Equal entries are not always repeated. Entries after “also recorded” stand apart in the source; their conditions may differ. Where two headings read alike, the source gives them in different places. Marks after values point to notes of the source that are not given here.

Legend:
[1] = tested on: CBRs expressed in PC-3 membranes; experiment: [^3H]WIN-55,212-2 competitive binding screen, PC-3 membranes; parameters: species or system human
Procedure: The assay was conducted as previously detailed. […] All binding reactions were conducted in triplicate, in a final volume of 1 mL, and, following mixing, were incubated for 20 min in a 37 °C water bath to achieve equilibrium. After incubation, reactions were terminated by rapid vacuum filtration through Whatman GF/B glass fiber filters (Brandel; Gaithersburg, MD, USA), followed by three washes of 4 mls of ice-cold filtration buffer (50 mM Tris, pH 7.4, and 0.05% bovine serum albumin). Samples were punched out from filter papers into scintillation vials, to which 4 mls of ScintiverseTM-BDR cocktail scintillation fluid (Fisher Scientific; Hampton, NH, USA) was added. Filters were incubated at room temperature for 24 h in scintillation fluid, vortexed, and radioactivity (measured as DPMs) was quantified via a liquid scintillation spectrophotometer (Tri Carb 2100 TR Liquid Scintillation Analyzer, Packard Instruments, Meriden, CT, USA).
These experiments were conducted to screen well-characterized cannabinoid ligands with high affinity for canonical CB1 and/or CB2Rs for binding to CBRs expressed in prostate cancer cells lines, as detailed in [33]. […] All binding reactions were conducted in triplicate, in a final volume of 1 mL, and, following mixing, were incubated for 20 min in a 37 °C water bath to achieve equilibrium. After incubation, reactions were terminated by rapid vacuum filtration and processed for radioactivity, as detailed in Section 4.5.1.

[2] = target: CBRs expressed in DU-145 membranes; format: binding, human
Procedure: (§1) The assay was performed as previously detailed. […] All binding reactions were conducted in triplicate, in a final volume of 1 mL, and, following mixing, were incubated for 20 min in a 37 °C water bath to achieve equilibrium. After incubation, reactions were terminated by rapid vacuum filtration and processed for radioactivity, as detailed in Section 4.5.1.
(§2) Curve-fitting and all statistical analyses were performed using GraphPad Prism® v8.0g (GraphPad Software, Inc.; San Diego, CA, USA). […] For CBR screening studies, a one-sample t-test was performed to determine differences from 100% (e.g., to quantify compounds producing displacement), followed by a one-way ANOVA and Tukey’s post hoc tests to compare displacement produced by all drugs. […] To compare specific CBR affinity (Ki) between ligands, non-linear regression analysis was employed to determine experimental IC50 values from competition receptor binding assays, which were then converted to Ki values using the Cheng–Prusoff equation [35]. Ki values were converted to pKi values so that parametric tests could be used and statistically compared by employing a one-way ANOVA followed by Tukey’s post hoc test. For statistical analyses of [^35S]GTPγS, adenylyl cyclase, and chronic experiments, a one-sample t-test was performed to detect differences from 100% (e.g., basal levels), followed by comparison of all means by a one-way ANOVA and Tukey’s post hoc test. For LDH release, ATP-dependent cell viability and JC-1 staining assays, drug effects were first analyzed by a one-sample t-test to determine differences from 0 or 100% (vehicle), followed by a one-way ANOVA and Dunnett’s post hoc test to compare all means. Significance for all statistical tests was defined at a minimal level of p < 0.05.

[3] = target: CBRs expressed in PC-3 membranes; format: binding, human
Procedure: as §1, §2

[4] = tested on: CBRs expressed in PC-3 cells; experiment: Adenylyl cyclase modulation in whole PC-3 cells; format: cell-based, human; details: 10 μM, with or without pertussis toxin
Procedure: (§3) These experiments were conducted to examine modulation of adenylyl cyclase activity by cannabinoid ligands in prostate cancer cell lines DU-145 and PC-3, as described earlier. CHO-hCB2, DU-145, or PC-3 cells were seeded into 24 well plates at a density of 8 × 10^6 cells per plate in growth media (DMEM for DU-145 and CHO-hCB2 cells or F12-K for PC-3 cells). Growth media contained FetalPlex (10%) and 1% pennicillin/streptomycin. Cells were cultured overnight in a humidified incubator maintained at 37 °C with 5% CO2. For some experiments, a subset of wells were treated overnight with pertussis toxin (2 μL/mL) to abolish Gi/Go protein-mediated signaling. Following overnight incubation, growth media was replaced with an incubation media containing either DMEM (for DU-145 and CHO-hCB2) or F12-K (for PC-3) with 0.9 g/l NaCl, 2.5 μCi/mL of [^3H]adenine, and 0.5 mM IBMX, and cells were kept in a humidified incubator maintained at 37 °C with 5% CO2 for 4 h. […] Finally, 10 mL of Scintiverse^TM BD Cocktail scintillation fluid (Fisher Scientific; Hampton, NH, USA) was added to eluates and radioactivity (quantified as DPMs) was quantified via a liquid scintillation spectrophotometer (Tri Carb 2100 TR Liquid Scintillation Analyzer, Packard Instruments, Meriden, CT, USA).

[5] = tested on: CBRs expressed in DU-145 cells; experiment: Adenylyl cyclase modulation in whole DU-145 cells; format: cell-based, human; details: 10 μM, with or without pertussis toxin
Procedure: as §3

[6] = tested on: DU-145 cells; experiment: Mitochondrial membrane potential (JC-1 staining), DU-145 cells; format: cell-based, human; details: 24 h; for mitochondrial membrane potential (MMP) depolarization: JC-1
[7] = 1 μM ligand, 1 nM radioligand, PC-3 membranes

| Structure (SMILES) | displacement of [^3H]WIN-55,212-2 [1, 7] | Ki [2] | pKi (−log Ki) [2] | Ki [3] | change in forskolin-stimulated intracellular cAMP levels [4] | change in forskolin-stimulated intracellular cAMP levels [5] | MMP on co-incubation with GW-405833 (10 μM) ([6]; 10 μM ligand co-incubated) | mitochondrial membrane potential (MMP) depolarization ([6]; 10 μM) | displacement of [^3H]WIN-55,212-2 [1] | pKi (−log Ki) [3] | mitochondrial membrane potential (MMP) depolarization ([6]; 50 μM) |
| --- | --- | --- | --- | --- | --- | --- | --- | --- | --- | --- | --- |
| Cc1c(C(=O)NN2CCCCC2)nn(-c2ccc(Cl)cc2Cl)c1-c1ccc(Cl)cc1 [rimonabant] | greater than 50% | 102 nM | 7.04 ± 0.15 ^a | 54.1 nM | neither WIN-55-212-2 nor rimonabant significantly altered intracellular cAMP levels | neither WIN-55-212-2 nor rimonabant significantly altered intracellular cAMP levels | MMP was not significantly reduced from vehicle-treated levels | reduced MMP | – | – | – |
| COc1ccc2c(c1)c(CCN1CCOCC1)c(C)n2C(=O)c1cccc(Cl)c1Cl [GW-405833] | – | ~290 nM and 290 nM | 6.5 ± 0.12 ^b | 296 nM | – | – | – | – | greater than 50% | 6.47 ± 0.17 ^b | – |
| Cc1c(C(=O)c2cccc3ccccc23)c2cccc3c2n1[C@H](CN1CCOCC1)CO3 [WIN-55,212-2] | significantly displaced; also recorded: complete displacement | – | – | – | neither WIN-55-212-2 nor rimonabant significantly altered intracellular cAMP levels | neither WIN-55-212-2 nor rimonabant significantly altered intracellular cAMP levels | – | produced effects only at 50 μM | – | – | produced effects only at 50 μM |
